This is an account of results in patent US20070155827A1, “USE OF BENZO-FUSED HETEROCYCLE SULFAMIDE DERIVATIVES FOR THE TREATMENT OF DEPRESSION” (priority 2005, published 2007).

The test deals with submissive rats. Put plainly: Dominant-Submissive Relations (DSR) assay: Reduction of Submissive Behavior Model (RSBM) of depression. The format is in vivo, Male Sprague Dawley rats. On the procedure:
The DSR assay is divided into two models: Reduction of Dominant Behavior Model (RDBM) of mania and Reduction of Submissive Behavior Model (RSBM) of depression. The RDBM, wherein the dominant animals are treated with test compound, is predictive of the ability of the test compound to treat mania. The RSBM, wherein the submissive animals are treated with test compound, is predictive of the ability of the test compound to treat depression.
Male Sprague Dawley rats (140 to 160 g) from Charles River Laboratories Wilmington, Mass. were used in this assay. Shipments of rats were received at two-week intervals. Each shipment went through five-day quarantine, one-week acclimation period, and one-week selection process, followed by five-weeks of drug or vehicle treatment to those pairs selected.
Rats were housed four per cage. Access to food was restricted to one hour per day after testing on Monday through Thursday. After testing on Friday, rats had free access to food until being fasted again on Sunday. At no time were the rats deprived of water. The food deprivation periods used had little effect on weight gain as the average weight of rats was about 300 g at the end of the study. At the conclusion of experiment rats were sacrificed by decapitation, the trunk blood and brains were collected for in vitro experiments and drug concentration measurements.
The basic testing apparatus consisted of two chambers connected with a tunnel only large enough to allow one rat to pass through at a time. On the floor, at the mid-point of the tunnel was a container of sweetened milk. This basic apparatus was replicated, so that a total of four pairs of rats can be video tracked simultaneously. The camera can distinguish rats marked by different colors. Thus, the rats' heads were colored for the purpose of video tracking, red in one cage and yellow in the other cage. Only one animal at a time can have comfortable access to the feeder, but both animals can drink milk during the five-minute daily session. During the five-minute daily sessions, time spent in the feeder zone by each rat was recorded by the video tracking software and saved into a text file.
The test began with a random assignment of rats into pairs. Each member of a pair was placed in an opposite chamber of the testing apparatus. The time spent in the feeder zone by each animal was recorded. During the first week (five days) of testing the animals habituate to the new environment. Dominance was assigned to the animal with the highest score during the second week of testing if three criteria were achieved. First, there must have been a significant difference (two-tailed t-test, P<0.05) between the average daily drinking scores of both animals. Second, the dominant animal score must have been at least 25% greater than the submissive animal's score. Finally, there must have been no “reversals” during the pair selection week where the putative submissive rat out-scored its dominant partner on isolated occasions. Ideally there were minimal reversals during the acclimation week as well. About twenty-five to thirty-three percent of the initial animal pairs achieved these criteria and only these pairs were continued in the study.
Significant differences between time spent on the feeder by dominant and submissive rats were determined by ANOVA using GraphPad Prism software (GraphPad Software, Inc. San Diego, Calif.) followed by a two-tailed t-test (P<0.05). Comparisons were made between treatment groups using normalized dominance level values in paired animals. The dominance level is a value that measures social relation between paired subjects. Dominance level (DL)=FTD−FTS where FTD is the feeder time of dominant rats and FTS is the feeder time of submissive rats. The normalization was conducted according to the formula: Dominance Level (week n in %)=(Dominance Level (week n))/(Dominance Level (week 2) […]

Entries after “also recorded” stand apart in the source; their conditions may differ.

Consider `NS(=O)(=O)NC[C@H]1COc2cc(Cl)ccc2O1` [Compound #8, (2S)-(−)-N-(6-Chloro-2,3-dihydro-benzo[1,4]dioxin-2-ylmethyl)-sulfamide], for which the “Dominance Level (DL) values vs vehicle control” value is, setting by setting: (2.5 mg/kg p.o.) “did not significantly differ from control”; (12.0 mg/kg p.o.) “significantly different from vehicle treated controls after the second, fourth and fifth week of treatment”; (60 mg/kg p.o.) “significant difference in DL values relative to vehicle starting at the first week and continuing through the treatment duration of 5 weeks”; (120 mg/kg p.o.) “significantly different from the control group after first week, however, this significance dissipated after the second week of treatment”. Besides, the “consistent loss of significance between dominant and submissive rats feeder time” value by setting is: (2.5 mg/kg p.o.) “no consistent loss of significance”; (120.0 mg/kg p.o.) “no consistent loss of significance”. For the same compound, the “difference in DL values with fluoxetine treated group” value (60.0 mg/kg p.o. vs fluoxetine 10 mg/kg) is “statistically significant at p<0.001 after first week and p<0.05 after second week of treatment”. Also, the “loss of significant difference between dominant and submissive rats” value (Compound #8 p.o., all doses used (2.5, 12, 60, 120 mg/kg)) is given as “lost after the first week of treatment”. Also, for the setting “Compound #8 treated groups, p.o.”, the “increased submissiveness during first week of treatment (effect seen with fluoxetine)” value is listed as “did not show this effect”. Further, the ED50 (Rattus norvegicus, po, RSBM, calculated) was 6.6 ± 0.8 mg/kg. Besides, the “reduction of submissive behavior” value (p.o. once a day for 5 weeks to submissive rats, 2.5-120 mg/kg) is given as “reduce submissive behavior in a dose-dependent manner; also recorded: reduced submissive behavior”.
